Source: patent publication US20020015743A1, “USE OF THE RB1, GINSENOSIDE FOR STIMULATING ELASTIN SYNTHESIS” (priority 1997, published 2002)
Values joined by “and” are separate entries in the source; they are usually repeats but may differ in a detail not shown here. Identical values can stand only once.

Experiments:
[1] = test system: normal human fibroblasts (NHF-47 years); assay: Elastin secreted by normal human skin fibroblasts, ELISA on culture supernatants (NHF-47 years); assay type: cell-based; conditions: for Activity in % (stimulation of elastin secretion vs control): 48 h; for ng Elastin/μg prot/48 h: n=6
Description: The cells had been obtained by the method of explants as described by M. Dumas et al. in the article entitled “in vitro biosynthesis of type I and III collagens by human dermal fibroblasts from donors of increasing ages” in Mech. Ageing Dev. 73 (1994), pages 179-187. These normal human skin fibroblasts thus obtained are sown in the wells of a multi-well culture box, in an E 199 culture medium, in which 2 millimoles per liter of L-glutamine have been added. Further, for a certain number of tests, the culture medium contains sodium ascorbate at concentrations of 15 or 25 micromoles per liter. 24 hours after sowing, certain wells receive ginsenoside Rb1 or an extract of Panax 1 to 10 μg/ml via a solution in DMSO so that the final DMSO concentration be 0.1%. […] These control cultures only receive DMSO at a final concentration of 0.1% by weight. The culture is continued for 48 h. After 48 h of culture as indicated above, the elastin secreted is determined on the supernatants of the culture, by an ELISA method derived from that used for the determination of collagen, as described by M. Dumas et al in the publication cited above, except that a commercial human anti-elastin polyclonal antibody was used instead of the human anti-collagen I and III polyclonal antibodies. A standard range made from commercial soluble elastin enables converting into nanograms of elastin the values of optical density (OD) obtained from the culture supernatants. In parallel with the determination of the elastin, a determination of the cell proteins is carried out on the cultures of fibroblasts, after removal of the supernatant, in order to bring the amount of elastin determined to a fixed amount of cell proteins. The determination is carried out by using a BCA-1 kit (Bicinchoninic acid kit, marketed by Sigma, France) after dissolution of the cell plug with 0.1 N sodium hydroxide solution. The results are expressed in nanograms of elastin secreted per microgram of cellular proteins. The activity A of stimulation, expressed in percentage, is calculated according to the following formula: [formula] The results obtained on the treated cultures (n=6) and controls (n=6) are compared with the aid of the Student t test for non-paired series. Any value of p<0.05 will indicate that a significant difference exists between the secretion of elastin of the control NHFs and those treated with the products of the invention.

[2] = test system: normal human fibroblasts (NHF-50 years); assay: Elastin secreted by normal human skin fibroblasts, ELISA on culture supernatants (NHF-50 years); assay type: cell-based
Description: The cells had been obtained by the method of explants as described by M. Dumas et al. in the article entitled “in vitro biosynthesis of type I and III collagens by human dermal fibroblasts from donors of increasing ages” in Mech. Ageing Dev. 73 (1994), pages 179-187. These normal human skin fibroblasts thus obtained are sown in the wells of a multi-well culture box, in an E 199 culture medium, in which 2 millimoles per liter of L-glutamine have been added. Further, for a certain number of tests, the culture medium contains sodium ascorbate at concentrations of 15 or 25 micromoles per liter. 24 hours after sowing, certain wells receive ginsenoside Rb1 or an extract of Panax 1 to 10 μg/ml via a solution in DMSO so that the final DMSO concentration be 0.1%. […] These control cultures only receive DMSO at a final concentration of 0.1% by weight. The culture is continued for 48 h. After 48 h of culture as indicated above, the elastin secreted is determined on the supernatants of the culture, by an ELISA method derived from that used for the determination of collagen, as described by M. Dumas et al in the publication cited above, except that a commercial human anti-elastin polyclonal antibody was used instead of the human anti-collagen I and III polyclonal antibodies. A standard range made from commercial soluble elastin enables converting into nanograms of elastin the values of optical density (OD) obtained from the culture supernatants. In parallel with the determination of the elastin, a determination of the cell proteins is carried out on the cultures of fibroblasts, after removal of the supernatant, in order to bring the amount of elastin determined to a fixed amount of cell proteins. The determination is carried out by using a BCA-1 kit (Bicinchoninic acid kit, marketed by Sigma, France) after dissolution of the cell plug with 0.1 N sodium hydroxide solution. The results are expressed in nanograms of elastin secreted per microgram of cellular proteins. The activity A of stimulation, expressed in percentage, is calculated according to the following formula: [formula] […]

fibrocytes = conditions: Tanaka H. et al., 1991; cited from earlier work
keratinocytes = conditions: Nack-in-Kim et al., J.Invest.Dermatol. 1993; cited from earlier work
[3] = product 10 μg/ml, no ascorbate, DMSO 0.1%

For `CC(C)=CCC[C@](C)(O[C@@H]1O[C@H](CO[C@@H]2O[C@H](CO)[C@@H](O)[C@H](O)[C@H]2O)[C@@H](O)[C@H](O)[C@H]1O)[C@H]1CC[C@]2(C)[C@@H]1[C@H](O)C[C@@H]1[C@@]3(C)CC[C@H](O[C@@H]4O[C@H](CO)[C@@H](O)[C@H](O)[C@H]4O[C@@H]4O[C@H](CO)[C@@H](O)[C@H](O)[C@H]4O)C(C)(C)[C@@H]3CC[C@]12C` [G-Rb1, ginsenoside Rb1], the “Activity in % (stimulation of elastin secretion vs control)” value (from here on “Activity in %”) ([1]; product 10 μg/ml + Asc. 15 μM) was 16%, the “ng Elastin/μg prot/48 h” value ([1]; product 10 μg/ml + Asc. 15 μM) was 39.3 + 2.8 ng Elastin/μg prot/48 h and the “Activity in %” value ([1]; product 10 μg/ml + Asc. 25 μM) was 10%. The “ng Elastin/μg prot/48 h” value ([1]; product 10 μg/ml + Asc. 25 μM) was 38.8 + 6.8 ng Elastin/μg prot/48 h, the “Activity in %” value [1, 3] was 31% and the “ng Elastin/μg prot/48 h” value [1, 3] was 25.8 ± 2.2 ng Elastin/μg prot/48 h. For the same compound, the “Activity in %” value ([2]; NHF-50 years, product 10 μg/ml + Asc. 25 μM, 48 h) was 21% and 17%, the “ng Elastin/μg prot/48 h” value ([2]; NHF-50 years, product 10 μg/ml + Asc. 25 μM, 48 h, n=6) was 26.3 + 3.7 ng Elastin/μg prot/48 h and 32 + 4.3 ng Elastin/μg prot/48 h and 28 + 2.2 ng Elastin/μg prot/48 h and the “synthesis of elastin by the fibroblasts (conclusion in words)” value ([2]; conclusion from Tables 1 to 3 (NHF-47 and NHF-50 years), stimulation augments with concentration) was “strongly stimulate the synthesis of elastin”.
For `CC(C)=CCC[C@](C)(O[C@@H]1O[C@H](CO[C@@H]2OC[C@H](O)[C@H](O)[C@H]2O)[C@@H](O)[C@H](O)[C@H]1O)[C@H]1CC[C@]2(C)[C@@H]1[C@H](O)C[C@@H]1[C@@]3(C)CC[C@H](O[C@@H]4O[C@H](CO)[C@@H](O)[C@H](O)[C@H]4O[C@@H]4O[C@H](CO)[C@@H](O)[C@H](O)[C@H]4O)C(C)(C)[C@@H]3CC[C@]12C` [ginsenoside Rb2], the “synthesis of glycosaminoglycans (GAG) by the fibrocytes” value (fibrocytes) is given as “effective to stimulate the synthesis of glycosaminoglycans (GAG)”.
In the case of ginsenoside, the “action on the proliferation of the keratinocytes” value (keratinocytes) is given as “inhibitory action”.
